Data as given in PubChem BioAssay (NCI).
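GI50 is the concentration that inhibits growth by half. The concentration for full growth arrest is given as TGI.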

Key:
Test in all cases: NCI anticancer screen, dose series, 384-well format
786-0 renal = system: 786-0 renal
A498 renal = system: A498 renal
A549 NSCLC = system: A549 NSCLC
ACHN renal = system: ACHN renal
BT-549 breast = system: BT-549 breast
CAKI-1 renal = system: CAKI-1 renal
CCRF-CEM leukemia = system: CCRF-CEM leukemia
COLO 205 colon = system: COLO 205 colon
DU-145 prostate = system: DU-145 prostate
EKVX NSCLC = system: EKVX NSCLC
HCC-2998 colon = system: HCC-2998 colon
HCT-116 colon = system: HCT-116 colon
HCT-15 colon = system: HCT-15 colon
HL-60(TB) leukemia = system: HL-60(TB) leukemia
HOP-62 NSCLC = system: HOP-62 NSCLC
HOP-92 NSCLC = system: HOP-92 NSCLC
HS 578T breast = system: HS 578T breast
HT29 colon = system: HT29 colon
IGROV1 ovarian = system: IGROV1 ovarian
K-562 leukemia = system: K-562 leukemia
KM12 colon = system: KM12 colon
LOX IMVI melanoma = system: LOX IMVI melanoma
M14 melanoma = system: M14 melanoma
MALME-3M melanoma = system: MALME-3M melanoma
MCF7 breast = system: MCF7 breast
MDA-MB-231 breast = system: MDA-MB-231 breast
MDA-MB-435 melanoma = system: MDA-MB-435 melanoma
MDA-MB-468 breast = system: MDA-MB-468 breast
MOLT-4 leukemia = system: MOLT-4 leukemia
NCI-H226 lung = system: NCI-H226 lung
NCI-H23 lung = system: NCI-H23 lung
NCI-H322M lung = system: NCI-H322M lung
NCI-H460 NSCLC = system: NCI-H460 NSCLC
NCI-H522 lung = system: NCI-H522 lung
NCI/ADR-RES ovarian = system: NCI/ADR-RES ovarian
OVCAR-3 ovarian = system: OVCAR-3 ovarian
OVCAR-4 ovarian = system: OVCAR-4 ovarian
OVCAR-5 ovarian = system: OVCAR-5 ovarian
OVCAR-8 ovarian = system: OVCAR-8 ovarian
PC-3 prostate = system: PC-3 prostate
RPMI-8226 leukemia = system: RPMI-8226 leukemia
RXF 393 renal = system: RXF 393 renal
SF-268 CNS = system: SF-268 CNS
SF-295 CNS = system: SF-295 CNS
SF-539 CNS = system: SF-539 CNS
SK-MEL-28 melanoma = system: SK-MEL-28 melanoma
SK-MEL-5 melanoma = system: SK-MEL-5 melanoma
SK-OV-3 ovarian = system: SK-OV-3 ovarian
SN12C renal = system: SN12C renal
SNB-19 CNS = system: SNB-19 CNS
SNB-75 CNS = system: SNB-75 CNS
SW-620 colon = system: SW-620 colon
T-47D breast = system: T-47D breast
TK-10 renal = system: TK-10 renal
U251 glioblastoma = system: U251 glioblastoma
UACC-257 melanoma = system: UACC-257 melanoma
UACC-62 melanoma = system: UACC-62 melanoma
UO-31 renal = system: UO-31 renal

## C=CC(=O)Nc1cccc(Nc2nc(Nc3ccc(N4CCN(C(C)=O)CC4)cc3OC)ncc2C(F)(F)F)c1
786-0 renal
  GI50: 2.61 µM
  TGI: 13.7 µM
A498 renal
  GI50: 1.81 µM
  TGI: 9.76 µM
A549 NSCLC
  GI50: 0.597 µM
  TGI: 4.84 µM
ACHN renal
  GI50: 1.94 µM
  TGI: 19 µM
BT-549 breast
  GI50: 2.87 µM
  TGI: 10.2 µM
CAKI-1 renal
  GI50: 1.91 µM
  TGI: 6.28 µM
CCRF-CEM leukemia
  GI50: 1.64 µM
  TGI: 3.22 µM
COLO 205 colon
  GI50: 1.34 µM
  TGI: 3.19 µM
DU-145 prostate
  GI50: 3.51 µM
  TGI: 14 µM
EKVX NSCLC
  GI50: 1.07 µM
  TGI: 3.72 µM
HCC-2998 colon
  GI50: 1.4 µM
  TGI: 8.2 µM
HCT-116 colon
  GI50: 3.04 µM
  TGI: 13.1 µM
HCT-15 colon
  GI50: 2.17 µM
  TGI: 8.75 µM
HL-60(TB) leukemia
  GI50: 1.4 µM
  TGI: 2.74 µM
HOP-62 NSCLC
  GI50: 1.97 µM
  TGI: 12.4 µM
HOP-92 NSCLC
  GI50: 2.06 µM
  TGI: 7.69 µM
HS 578T breast
  GI50: 1.9 µM
  TGI: 6.58 µM
HT29 colon
  GI50: 1.8 µM
  TGI: 5.07 µM
IGROV1 ovarian
  GI50: 0.493 µM
  TGI: 2.09 µM
K-562 leukemia
  GI50: 3.76 µM
  TGI: 13.5 µM
KM12 colon
  GI50: 2.16 µM
  TGI: 14.4 µM
LOX IMVI melanoma
  GI50: 2.64 µM
  TGI: 10.4 µM
M14 melanoma
  GI50: 1.94 µM
  TGI: 8.31 µM
MALME-3M melanoma
  GI50: 2.39 µM
  TGI: 8.83 µM
MCF7 breast
  GI50: 0.905 µM
  TGI: 5.28 µM
MDA-MB-231 breast
  GI50: 3.46 µM
  TGI: 17.6 µM
MDA-MB-435 melanoma
  GI50: 4.73 µM
  TGI: 17.1 µM
MDA-MB-468 breast
  GI50: 0.157 µM
  TGI: 0.81 µM
MOLT-4 leukemia
  GI50: 0.521 µM
  TGI: 1.87 µM
NCI-H226 lung
  GI50: 1.38 µM
  TGI: 6.51 µM
NCI-H23 lung
  GI50: 1.94 µM
  TGI: 6.87 µM
NCI-H322M lung
  GI50: 1.22 µM
  TGI: 3.35 µM
NCI-H460 NSCLC
  GI50: 2.71 µM
  TGI: 7.5 µM
NCI-H522 lung
  GI50: 0.288 µM
  TGI: 1.55 µM
NCI/ADR-RES ovarian
  GI50: 10.6 µM
  TGI: 22.7 µM
OVCAR-3 ovarian
  GI50: 2.05 µM
  TGI: 5.91 µM
OVCAR-4 ovarian
  GI50: 4.33 µM
  TGI: 34.6 µM
OVCAR-5 ovarian
  GI50: 2.33 µM
  TGI: 14.6 µM
OVCAR-8 ovarian
  GI50: 2.83 µM
  TGI: 10.2 µM
PC-3 prostate
  GI50: 4.33 µM
  TGI: 15.9 µM
RPMI-8226 leukemia
  GI50: 1.89 µM
  TGI: 5.16 µM
RXF 393 renal
  GI50: 1.88 µM
  TGI: 6.6 µM
SF-268 CNS
  GI50: 0.268 µM
  TGI: 2.24 µM
SF-295 CNS
  GI50: 6.74 µM
  TGI: 19.8 µM
SF-539 CNS
  GI50: 3.46 µM
  TGI: 14.1 µM
SK-MEL-28 melanoma
  GI50: 10.2 µM
  TGI: 23.9 µM
SK-MEL-5 melanoma
  GI50: 1.83 µM
  TGI: 8.62 µM
SK-OV-3 ovarian
  GI50: 2.03 µM
  TGI: 9.89 µM
SN12C renal
  GI50: 2.07 µM
  TGI: 9.13 µM
SNB-19 CNS
  GI50: 8.32 µM
  TGI: 20.9 µM
SNB-75 CNS
  GI50: 2.98 µM
  TGI: 12.2 µM
SW-620 colon
  GI50: 1.75 µM
  TGI: 3.45 µM
T-47D breast
  GI50: 1.44 µM
  TGI: 5.28 µM
TK-10 renal
  GI50: 1.62 µM
  TGI: 4.78 µM
U251 glioblastoma
  GI50: 5.04 µM
  TGI: 17.2 µM
UACC-257 melanoma
  GI50: 2.54 µM
  TGI: 11.1 µM
UACC-62 melanoma
  GI50: 2.36 µM
  TGI: 11.8 µM
UO-31 renal
  GI50: 2.26 µM
  TGI: 9.61 µM
